Tests used:
Integrin alpha-4/beta-1 [1] = biological target: T1, Integrin alpha-4/beta-1 (Homo sapiens, UniProt P05556+P13612); test: Concentration required to inhibit the VCAM-Very late antigen4 (VLA4) interaction in Ramos cell-based assay; type: functional
Integrin alpha-4/beta-1 [2] = biological target: T1, Integrin alpha-4/beta-1; test: Concentration required to inhibit the VCAM-Very late antigen4 (VLA4) interaction in ELISA cell-based assay; type: functional

T1 sequence (P05556 whole entry): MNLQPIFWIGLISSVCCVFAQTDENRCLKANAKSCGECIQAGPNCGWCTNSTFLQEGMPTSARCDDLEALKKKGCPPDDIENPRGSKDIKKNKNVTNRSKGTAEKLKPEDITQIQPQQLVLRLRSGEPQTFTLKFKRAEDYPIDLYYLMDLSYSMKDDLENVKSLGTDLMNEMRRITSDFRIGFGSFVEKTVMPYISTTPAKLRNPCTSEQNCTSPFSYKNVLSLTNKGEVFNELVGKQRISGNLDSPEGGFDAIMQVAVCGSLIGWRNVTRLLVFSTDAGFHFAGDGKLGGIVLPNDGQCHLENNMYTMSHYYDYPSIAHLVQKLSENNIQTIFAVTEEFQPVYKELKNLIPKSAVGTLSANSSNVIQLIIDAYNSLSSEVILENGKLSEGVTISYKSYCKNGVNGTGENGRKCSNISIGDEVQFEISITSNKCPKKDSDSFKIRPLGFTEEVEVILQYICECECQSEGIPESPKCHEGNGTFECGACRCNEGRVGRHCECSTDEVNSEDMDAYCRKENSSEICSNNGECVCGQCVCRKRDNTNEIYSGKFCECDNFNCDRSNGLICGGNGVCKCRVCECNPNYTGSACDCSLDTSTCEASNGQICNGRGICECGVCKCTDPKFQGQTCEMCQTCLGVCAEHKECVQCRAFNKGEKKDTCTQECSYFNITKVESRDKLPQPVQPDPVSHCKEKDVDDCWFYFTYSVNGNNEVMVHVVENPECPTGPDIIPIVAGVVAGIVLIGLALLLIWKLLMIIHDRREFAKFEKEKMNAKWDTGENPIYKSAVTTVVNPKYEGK
T1 sequence (P13612 whole entry): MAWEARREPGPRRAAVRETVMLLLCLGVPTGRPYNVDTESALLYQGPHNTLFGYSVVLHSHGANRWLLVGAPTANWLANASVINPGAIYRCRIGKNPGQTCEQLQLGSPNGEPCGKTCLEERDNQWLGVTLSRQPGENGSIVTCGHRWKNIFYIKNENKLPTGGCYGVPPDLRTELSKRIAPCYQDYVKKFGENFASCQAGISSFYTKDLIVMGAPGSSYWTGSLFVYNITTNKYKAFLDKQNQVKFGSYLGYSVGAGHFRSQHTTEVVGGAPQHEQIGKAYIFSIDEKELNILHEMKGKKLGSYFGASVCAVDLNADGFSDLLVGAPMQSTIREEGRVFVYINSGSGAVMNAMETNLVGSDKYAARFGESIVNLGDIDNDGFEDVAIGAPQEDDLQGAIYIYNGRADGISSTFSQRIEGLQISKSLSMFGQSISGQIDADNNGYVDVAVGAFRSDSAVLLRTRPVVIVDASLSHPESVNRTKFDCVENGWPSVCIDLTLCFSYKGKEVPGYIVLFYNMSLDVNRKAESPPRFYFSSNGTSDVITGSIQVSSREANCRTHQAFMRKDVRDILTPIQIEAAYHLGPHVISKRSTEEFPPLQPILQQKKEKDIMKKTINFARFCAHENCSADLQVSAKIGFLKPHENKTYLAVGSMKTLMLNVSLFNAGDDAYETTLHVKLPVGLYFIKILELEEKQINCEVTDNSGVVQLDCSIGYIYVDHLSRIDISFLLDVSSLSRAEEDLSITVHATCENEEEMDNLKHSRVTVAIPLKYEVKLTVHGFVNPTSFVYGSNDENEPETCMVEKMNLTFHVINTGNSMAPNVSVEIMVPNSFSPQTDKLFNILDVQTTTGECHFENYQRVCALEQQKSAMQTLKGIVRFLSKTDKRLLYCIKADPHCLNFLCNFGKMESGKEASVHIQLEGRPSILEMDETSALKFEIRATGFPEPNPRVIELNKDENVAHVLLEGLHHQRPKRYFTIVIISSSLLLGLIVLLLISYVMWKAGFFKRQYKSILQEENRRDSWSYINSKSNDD

CCN(CC)C(=O)C(Cc1ccc(O)cc1)NC(=O)c1ccc(C[C@H](NC(=O)[C@@H]2CCC(=O)N2Cc2ccccc2)C(=O)O)cc1 (stereo not given in full)
IC50 (Integrin alpha-4/beta-1 [1]): 550 nM
IC50 (Integrin alpha-4/beta-1 [2]): 5 nM

O=C(O)[C@H](Cc1ccc(C(=O)N2CCN(C(=O)c3ccccc3)CC2)cc1)NC(=O)[C@@H]1CCC(=O)N1Cc1ccccc1
IC50 (Integrin alpha-4/beta-1 [1]): 960 nM
IC50 (Integrin alpha-4/beta-1 [2]): 3 nM

COc1ccc(CNC(=O)c2ccc(C[C@H](NC(=O)[C@@H]3CCC(=O)N3Cc3ccccc3)C(=O)O)cc2)cc1
IC50 (Integrin alpha-4/beta-1 [2]): 61 nM

CCN(CC)C(=O)C(Cc1ccc(O)cc1)NC(=O)c1cccc(C[C@H](NC(=O)[C@@H]2CCC(=O)N2Cc2ccccc2)C(=O)O)c1 (stereo not given in full)
IC50 (Integrin alpha-4/beta-1 [1]): 24400 nM
IC50 (Integrin alpha-4/beta-1 [2]): 240 nM

CC(=O)c1ccccc1NC(=O)c1ccc(C[C@H](NC(=O)[C@@H]2CCC(=O)N2Cc2ccccc2)C(=O)O)cc1
IC50 (Integrin alpha-4/beta-1 [1]): 940 nM
IC50 (Integrin alpha-4/beta-1 [2]): 4 nM

O=C(O)[C@H](Cc1ccc(C(=O)N2CCN(S(=O)(=O)c3ccccc3)CC2)cc1)NC(=O)[C@@H]1CCC(=O)N1Cc1ccccc1
IC50 (Integrin alpha-4/beta-1 [1]): 2200 nM
IC50 (Integrin alpha-4/beta-1 [2]): 11 nM

CC(=O)N[C@@H](Cc1ccc(O)cc1)C(=O)Nc1ccc(C[C@H](NC(=O)[C@H]2CCC(=O)N2Cc2ccccc2)C(=O)O)cc1
IC50 (Integrin alpha-4/beta-1 [1]): 2100 nM
IC50 (Integrin alpha-4/beta-1 [2]): 6.5 nM

O=C(O)[C@H](Cc1ccc(C(=O)N2CCN(C(=O)c3ccc(O)cc3)CC2)cc1)NC(=O)[C@@H]1CCC(=O)N1Cc1ccccc1
IC50 (Integrin alpha-4/beta-1 [1]): 1700 nM
IC50 (Integrin alpha-4/beta-1 [2]): 3 nM

C[C@H](NC(=O)c1ccc(C[C@H](NC(=O)[C@@H]2CCC(=O)N2Cc2ccccc2)C(=O)O)cc1)c1ccccc1
IC50 (Integrin alpha-4/beta-1 [2]): 27 nM

O=C(Nc1ccccc1)c1ccc(C[C@H](NC(=O)[C@@H]2CCC(=O)N2Cc2ccccc2)C(=O)O)cc1
IC50 (Integrin alpha-4/beta-1 [2]): 57 nM

O=C(O)[C@H](Cc1cccc(C(=O)N2CCN(C(=O)c3ccccc3)CC2)c1)NC(=O)[C@@H]1CCC(=O)N1Cc1ccccc1
IC50 (Integrin alpha-4/beta-1 [2]): 120 nM

COc1ccc(C(=O)N2CCN(C(=O)c3ccc(C[C@H](NC(=O)[C@@H]4CCC(=O)N4Cc4ccccc4)C(=O)O)cc3)CC2)cc1
IC50 (Integrin alpha-4/beta-1 [1]): 320 nM
IC50 (Integrin alpha-4/beta-1 [2]): 4 nM

O=C(Nc1ccc(C[C@H](NC(=O)[C@H]2CCC(=O)N2Cc2ccccc2)C(=O)O)cc1)c1c(Cl)cccc1Cl
IC50 (Integrin alpha-4/beta-1 [2]): 0.37 nM

CC(=O)N1CCN(C(=O)c2ccc(C[C@H](NC(=O)[C@@H]3CCC(=O)N3Cc3ccccc3)C(=O)O)cc2)CC1
IC50 (Integrin alpha-4/beta-1 [1]): 5500 nM
IC50 (Integrin alpha-4/beta-1 [2]): 7 nM

COc1ccc(S(=O)(=O)N2CCN(C(=O)c3ccc(C[C@H](NC(=O)[C@@H]4CCC(=O)N4Cc4ccccc4)C(=O)O)cc3)CC2)cc1
IC50 (Integrin alpha-4/beta-1 [1]): 9530 nM
IC50 (Integrin alpha-4/beta-1 [2]): 12 nM

O=C(O)[C@H](Cc1ccc(C(=O)N2CCN(C(=O)c3cccc(O)c3)CC2)cc1)NC(=O)[C@@H]1CCC(=O)N1Cc1ccccc1
IC50 (Integrin alpha-4/beta-1 [1]): 470 nM
IC50 (Integrin alpha-4/beta-1 [2]): 3 nM

O=C(O)[C@H](Cc1cccc(C(=O)N2CCN(S(=O)(=O)c3ccccc3)CC2)c1)NC(=O)[C@@H]1CCC(=O)N1Cc1ccccc1
IC50 (Integrin alpha-4/beta-1 [2]): 60 nM

COc1ccc(S(=O)(=O)N2CCN(C(=O)c3cccc(C[C@H](NC(=O)[C@@H]4CCC(=O)N4Cc4ccccc4)C(=O)O)c3)CC2)cc1
IC50 (Integrin alpha-4/beta-1 [1]): 7800 nM
IC50 (Integrin alpha-4/beta-1 [2]): 73 nM
